Experimental data: patent US10918743B2, “Contrast medium formulation and related preparation method” (GUERBET, priority 2013, dated 2021)

Assay: Thermodynamic equilibrium constant for the complexation of Gd3+
Assay type: physicochemical
Conditions: complexation of Gd^3+ by the ligand
Text: In the particular case where M represents a gadolinium ion, for the following chemical equilibria: [drawing 3] and DOTA+Gd ? [DOTA-Gd] (equation 2) the thermodynamic equilibrium constant of equation 1 (i.e. for the complexation of Gd^3+ by the ligand of formula I') is 10^14.9 (i.e. log ([…])=14.9), while the thermodynamic equilibrium constant of equation 2 (i.e. for the complexation of Gd^3+ by DOTA) is 10^25.6 (i.e. log ([…])=25.6). Thus, the formulations according to the invention go against the teachings of document U.S. Pat. No. 5,876,695 in particular, since the complex of DOTA with the gadolinium ion is more thermodynamically stable than the active complex.

| log (Ktherm), thermodynamic equilibrium constant | Structure (SMILES) |
| --- | --- |
| 25.6 | O=C(O)CN1CCN(CC(=O)O)CCN(CC(=O)O)CCN(CC(=O)O)CC1 [DOTA, 1,4,7,10-tetraazacyclododecane-1,4,7,10-tetraacetic acid] |
| 14.9 | O=C(CCC(C(=O)O)N1CCN(C(CCC(=O)NCC(O)CO)C(=O)O)Cc2cccc(n2)CN(C(CCC(=O)NCC(O)CO)C(=O)O)CC1)NCC(O)CO (centres unmarked) [ligand of formula I′] |
